Earlier results, collected in patent publication US20260345512A1, “TRANSDERMAL DELIVERY OF DEXTROMETHORPHAN” (SHINKEI THERAPEUTICS, INC., priority 2022, published 2026).

Key:
[1] = dextromethorphan alone
[2] = without enhancer

Row | SMILES | adverse reactions reported with use of the individual component [1] | transdermal delivery rate relative to beta estradiol [2]
1 | COc1ccc2c(c1)[C@]13CCCC[C@@H]1[C@H](C2)N(C)CC3 [dextromethorphan] | drowsiness, dizziness, nervousness or restlessness, nausea, vomiting, and stomach pain | 
2 | C[C@]12CC[C@H]3[C@@H](CCC4=CC(=O)CC[C@@]43C)[C@@H]1CC[C@@H]2O [testosterone] |  | three orders of magnitude higher
